For data set [1] the following is noted: Liquid; for mass density: 101.33 kPa.
A short description of data set [2]: refractive index (Na D-line) (dimensionless). The note with it: 101.33 kPa, Liquid, Standard Abbe refractometry.

SMILES strings stand for the structures. ± gives the expanded uncertainty stated by the source.

With `N#Cc1cnccn1` [2-cyanopyrazine], the mass density – broadly, mass per unit of volume – in data set [1] (293.15 K) was 1174 ± 1.8 kg/m3. Also, the vapor or sublimation pressure (as a rule, the pressure of vapour in equilibrium with the condensed phase) in data set [1] (476.15 K) was 95.1 ± 5 kPa. The refractive index – broadly, a measure of how strongly the sample bends light – in data set [2] (293.15 K) is on record as 1.534 ± 0.0007.
For the compound `COc1ccccc1` [anisole], the mass density in data set [1] (298.15 K) was determined as 989.3 ± 1.5 kg/m3. In addition, the “vapor or sublimation pressure” value in data set [1] (424.45 K) was found to be 95.1 ± 5 kPa. Further, in data set [2] (298.15 K), the refractive index came out at 1.5142 ± 0.0007.
`CCC(C)=O` [butanone]: the mass density in data set [1] (298.15 K) amounted to 799.8 ± 1.2 kg/m3. In data set [1] (350.95 K), the “vapor or sublimation pressure” value is 95.1 ± 5 kPa. For the same compound, the refractive index in data set [2] (298.15 K) is reported as 1.3769 ± 0.0007.
Regarding `CCCCCCCCCC` [decane], in data set [1] (298.15 K), the mass density is 726.4 ± 1 kg/m3. The “vapor or sublimation pressure” value in data set [1] (444.95 K) is 95.1 ± 5 kPa. For the same compound, the refractive index in data set [2] (298.15 K) was determined as 1.4097 ± 0.0007.
`CC(C)OC(C)C` [diisopropyl ether]: the mass density in data set [1] (298.15 K) is reported as 718.5 ± 1 kg/m3. The “vapor or sublimation pressure” value in data set [1] (339.65 K) was 95.1 ± 5 kPa. Besides, the refractive index in data set [2] (298.15 K) was determined as 1.3654 ± 0.0007.
Take `CN(C)C=O` [dimethylformamide]: in data set [1] (298.15 K), the mass density is 943.9 ± 1.4 kg/m3. For the same compound, the “vapor or sublimation pressure” value in data set [1] (420.85 K) and in data set [1] (420.95 K) was 95.1 ± 5 kPa in each case. The refractive index in data set [2] (298.15 K) was 1.4282 ± 0.0007.
With `CCCCCCCC` [octane], the mass density in data set [1] (298.15 K) stood at 698.6 ± 1 kg/m3. In addition, the “vapor or sublimation pressure” value in data set [1] (391.15 K) is 95.1 ± 5 kPa.
